According to ChEMBL document CHEMBL1128726, “N-substituted oxazolo[5,4-b]pyridin-2(1H)-ones: a new class of non-opiate antinociceptive agents” (J Med Chem, 1995):

Experiments:
Rattus norvegicus [1] = assay: Inhibition of acetic acid induced writhing in rat following 50 mg/kg p.o.; format: functional; settings: route oral
Mus musculus [2] = species: Mus musculus; assay: Antinociceptive potency against phenylquinone (PBQ)-induced writhing in mice (8 mice/dose); format: functional
Rattus norvegicus [3] = species: Rattus norvegicus; assay: Antinociceptive potency against acetic acid -induced writhing in rat (8 rats/dose); format: functional
Rattus norvegicus [4] = species: Rattus norvegicus; assay: Analgesic activity against acetic acid-induced writhing in the rat compared to that of aspirin.; format: functional
Mus musculus [5] = assay: Inhibition of phenylquinone induced writhing in mice following 50 mg/kg p.o.; format: functional; settings: route oral
Mus musculus [6] = species: Mus musculus; assay: Analgesic activity against phenylquinone induced writhing in mice compared to that of aspirin.; format: functional
Rattus norvegicus [7] = species: Rattus norvegicus; assay: animal or person; settings: po, read-out: Inhibition
Description: Antiinflammatory activity was evaluated by carrageenan induced rat paw edema (6 rats/ dose) at peroral dose of 10 mg/kg by inhibition of Prostaglandin E2 (PGE2).

Rattus norvegicus [8] = assay: Antiinflammatory activity was evaluated by carrageenan induced rat paw edema volume was determined.; format: functional
Rattus norvegicus [9] = assay: Antiinflammatory activity was evaluated by carrageenan induced rat paw edema (6 rats/ dose) at peroral dose of 10 mg/kg by inhibition of leukotriene B4 (LTB4) synthesis.; format: functional; settings: route oral
Rattus norvegicus [10] = assay: Antiinflammatory activity was evaluated by carrageenan induced rat paw edema (6 rats/ dose) at peroral dose of 100 mg/kg by inhibition of leukotriene B4 (LTB4) synthesis.; format: functional; settings: route oral
Mus musculus [11] = assay: Mortality threshold doses was determined from orientative acute toxicity Irwin test (3 mice/dose) by peroral administration; format: organism-based; settings: in vivo, po
Rattus norvegicus [12] = assay: Antiinflammatory activity was evaluated by carrageenan induced rat paw edema (6 rats/ dose) at peroral dose of 100 mg/kg by inhibition of Prostaglandin E2 (PGE2).; format: functional; settings: route oral
Mus musculus [13] = assay: Analgesic activity was evaluated in mice by hot plate assay and percent change in foot licking latency was determined at 32 mg/kg i.p. dose. p<0.05; format: functional; settings: route intraperitoneal
Rattus norvegicus [14] = assay: Antiinflammatory activity was evaluated by carrageenan induced rat paw edema (6 rats/ dose) at peroral dose of 200 mg/kg by inhibition of leukotriene B4 (LTB4) synthesis.; format: functional; settings: route oral
Rattus norvegicus [15] = assay: Antiinflammatory activity was evaluated by carrageenan induced rat paw edema (6 rats/ dose) at peroral dose of 200 mg/kg by inhibition of Prostaglandin E2 (PGE2).; format: functional; settings: route oral
Rattus norvegicus [16] = assay: Antiinflammatory activity was evaluated by carrageenan induced rat paw edema (6 rats/ dose) at peroral dose of 200 mg/kg and percent of variation of edema volume was determined.; format: functional; settings: route oral
Rattus norvegicus [17] = assay: % inhibition of acetic acid-induced writhing in rat at 1.5 mg/kg peroral dose, 30 min postdose(5 rats per compound at each time).p<0.001; format: functional; settings: 0.5 h, route oral
Rattus norvegicus [18] = assay: Antiinflammatory activity was evaluated by carrageenan induced rat paw edema (6 rats/ dose) at peroral dose of 50 mg/kg by inhibition of Prostaglandin E2 (PGE2).; format: functional; settings: route oral
Rattus norvegicus [19] = assay: Antiinflammatory activity was evaluated by carrageenan induced rat paw edema (6 rats/ dose) at peroral dose of 50 mg/kg and percent of variation of edema volume was determined.; format: functional; settings: route oral
Rattus norvegicus [20] = assay: % inhibition of acetic acid-induced writhing in rat at 1.5 mg/kg peroral dose, 60 min postdose(5 rats per compound at each time).p<0.01; format: functional; settings: 1 h, route oral
Rattus norvegicus [21] = assay: % inhibition of acetic acid-induced writhing in rat at 1.5 mg/kg peroral dose, 120 min postdose(5 rats per compound at each time).p<0.05; format: functional; settings: 2 h, route oral
Rattus norvegicus [22] = assay: Antiinflammatory activity was evaluated by carrageenan induced rat paw edema (6 rats/ dose) at peroral dose of 50 mg/kg by inhibition of leukotriene B4 (LTB4) synthesis.; format: functional; settings: route oral
Rattus norvegicus [23] = assay: % inhibition of acetic acid-induced writhing in rat at 1.5 mg/kg peroral dose, 15 min postdose(5 rats per compound at each time). p<0.05; format: functional; settings: 0.25 h, route oral
Rattus norvegicus [24] = assay: % inhibition of acetic acid-induced writhing in rat at 1.5 mg/kg peroral dose, 360 min postdose(5 rats per compound at each time); format: functional; settings: 6 h, route oral
Mus musculus [25] = assay: Mortality threshold doses was determined from orientative acute toxicity Irwin test (3 mice/dose) by peroral administration. Value in parentheses represent the percent mortality.; format: organism-based; settings: in vivo, po
Rattus norvegicus [26] = assay: % inhibition of acetic acid-induced writhing in rat at 1.5 mg/kg peroral dose, 180 min postdose(5 rats per compound at each time).p<0.05; format: functional; settings: 3 h, route oral
Mus musculus [27] = assay: Analgesic activity was evaluated in mice by hot plate assay and percent change in foot licking latency was determined at 8 mg/kg i.p. dose; format: functional; settings: route intraperitoneal

| Structure (SMILES) | inhibition in vivo at 50 mg/kg (Rattus norvegicus [1]) | ED50 (Mus musculus [2]) | ED50 (Rattus norvegicus [3]) | Activity ratio (Rattus norvegicus [4]) | inhibition in vivo at 50 mg/kg (Mus musculus [5]) | Activity ratio (Mus musculus [6]) | other results |
| --- | --- | --- | --- | --- | --- | --- | --- |
| O=c1oc2ncccc2n1CCN1CCN(c2ccccc2)CC1 | 74% | 25 mg/kg | 13.6 mg/kg | – | – | – | – |
| O=c1oc2ncccc2n1CCCN1CCN(c2cccc3ccccc23)CC1 | 0% | – | – | 0 | 44% | 0.9 | – |
| O=c1oc2ncccc2n1CCCCN1CCC(c2ccccc2)CC1 | 59% | – | – | 1.5 | 0% | 0 | – |
| O=c1oc2ncccc2n1CCCCCN1CCN(c2ccc(F)cc2)CC1 | 100% | 11.4 mg/kg | 30.4 mg/kg | 1.6 | 100% | 1.4 | – |
| O=c1oc2ncccc2n1CCN1CCC(c2ccccc2)CC1 | 50% | – | – | 0.7 | 9% | 0.1 | – |
| O=c1oc2ncccc2n1CCCCCCN1CCN(c2ccc(F)cc2)CC1 | 100% | 7.7 mg/kg | 14.2 mg/kg | 1.6 | 100% | 1.4 | – |
| COc1ccc2c(c1)c(CC(=O)O)c(C)n2C(=O)c1ccc(Cl)cc1 [INDOMETHACIN] | – | – | – | – | – | – | inhibition in vivo at 10 mg/kg (Rattus norvegicus [7]): 100%; Change in volume (Rattus norvegicus [8]): -57%; inhibition in vivo at 10 mg/kg (Rattus norvegicus [9]): 18% |
| O=c1oc2ncccc2n1CCN1CCN(c2cccc(C(F)(F)F)c2)CC1 | 11% | – | – | 0.2 | 10% | 0.1 | – |
| O=C(CCn1c(=O)oc2ncccc21)N1CCN(c2ccc(F)cc2)CC1 | 43% | – | – | 0.5 | 25% | 0.4 | – |
| O=c1oc2ncccc2n1CCCN1CCN(c2ccccc2)CC1 | 92% | 12.7 mg/kg | 3.3 mg/kg | 1.3 | 98% | 1.4 | Change in volume (Rattus norvegicus [8]): -20%; inhibition in vivo at 100 mg/kg (Rattus norvegicus [10]): 35%; Mortality threshold (Mus musculus [11]): > 1024 mg/kg; inhibition in vivo at 100 mg/kg (Rattus norvegicus [12]): 5%; Change in foot-licking latency (Mus musculus [13]): 30% |
| O=c1oc2ncccc2n1CCN1CCN(c2ccc(F)cc2)CC1 | 85% | 6.7 mg/kg | 3.6 mg/kg | 1.2 | 83% | 1.2 | – |
| O=C1CCN(c2ccccc2)N1 [PHENIDONE] | – | – | – | – | – | – | inhibition in vivo at 200 mg/kg (Rattus norvegicus [14]): 100%; inhibition in vivo at 200 mg/kg (Rattus norvegicus [15]): 100%; Change in volume (Rattus norvegicus [16]): -68% |
| CC(CCn1c(=O)oc2ncccc21)N1CCN(c2ccc(F)cc2)CC1 (stereo not given) | 51% | – | – | 0.7 | 63% | 1.3 | – |
| O=c1oc2ncccc2n1CCCN1CCN(c2ccc(F)cc2)CC1 | 79% | 5.6 mg/kg | 0.5 mg/kg | 2 | 85% | 1.6 | inhibition in vivo at 1.5 mg/kg (Rattus norvegicus [17]): 65%; inhibition in vivo at 50 mg/kg (Rattus norvegicus [18]): -5%; Change in volume (Rattus norvegicus [19]): -11%; inhibition in vivo at 1.5 mg/kg (Rattus norvegicus [20]): 50%; inhibition in vivo at 1.5 mg/kg (Rattus norvegicus [21]): 63%; inhibition in vivo at 50 mg/kg (Rattus norvegicus [22]): 16%; inhibition in vivo at 1.5 mg/kg (Rattus norvegicus [23]): 47%; inhibition in vivo at 1.5 mg/kg (Rattus norvegicus [24]): 4%; Mortality threshold (Mus musculus [25]): 1024 mg/kg; inhibition in vivo at 1.5 mg/kg (Rattus norvegicus [26]): 44%; Change in foot-licking latency (Mus musculus [13]): 87% |
| O=c1oc2ncccc2n1CCCCN1CCN(c2ccc(F)cc2)CC1 | 87% | 2.9 mg/kg | 0.5 mg/kg | 2.2 | 100% | 1.9 | inhibition in vivo at 50 mg/kg (Rattus norvegicus [18]): 2%; Variation of edema volume (Rattus norvegicus [8]): -25%; inhibition in vivo at 50 mg/kg (Rattus norvegicus [22]): 0%; Change in foot-licking latency (Mus musculus [27]): 113%; Mortality threshold (Mus musculus [11]): 512 mg/kg |
| COc1ccccc1N1CCN(CCn2c(=O)oc3ncccc32)CC1 | 53% | – | – | 0.8 | 52% | 0.8 | – |
| O=c1oc2ncccc2n1CCN1CCCC1 | 55% | – | – | 0.8 | 55% | 0.8 | – |
| COc1ccc(N2CCN(CCCn3c(=O)oc4ncccc43)CC2)cc1 | 14% | – | – | 0.2 | 35% | 0.7 | – |
| O=c1oc2ncccc2n1CCN1CCN(c2cccc3ccccc23)CC1 | 6% | – | – | 0.1 | 33% | 0.7 | – |
| O=c1oc2ncccc2n1CCCN1CCOCC1 | 0% | – | – | 0 | 48% | 0.9 | – |
| O=c1oc2ncccc2n1CCCN1CCN(Cc2ccccc2)CC1 | 12% | – | – | 0.2 | 14% | 0.3 | – |
| CC(CN1CCN(c2ccc(F)cc2)CC1)Cn1c(=O)oc2ncccc21 (stereo not given) | 100% | 24.6 mg/kg | 20.5 mg/kg | 1.6 | 99% | 1.4 | – |
| O=c1oc2ncccc2n1CCN1CCN(Cc2ccccc2)CC1 | 48% | – | – | 0.7 | 43% | 0.9 | – |
| O=c1oc2ncccc2n1CCCCN1CCN(c2ccccc2)CC1 | 96% | 27 mg/kg | 13.6 mg/kg | 1.4 | 91% | 1.3 | – |
